Experimental data reported in patent US20090232735A1, “USE OF FRUCTOSE-BASED THERAPIES FOR THE TREATMENT OF CANCER” (CEDARS-SINAI MEDICAL CENTER, priority 2005, published 2009).

Tests used:
Type in all cases: cell-based, human
[1] = system: GLUT-5 mRNA; assay: GLUT-5 mRNA by real-time RT-PCR in PANC-1 cells
Experimental: FIG. 22 depicts […] mRNA levels in pancreatic cancer cells in accordance with an embodiment of the present invention. Quantitative real-time RT-PCR was used to measure GLUT-5 mRNA levels in pancreatic cancer cells (PANC-1), following culture in 2 mM glucose, 5.5 mM glucose, or 5.5 mM fructose for 4 h and 24 h.
Brit J Biomed Sci 56(4): 285-292, 1999; Rogers S, Docherty S E, Slavin J L, Henderson and Best J D. Differential expression of GLUT12 in breast cancer and normal breast tissue. Cancer Letters 193(2): 225-233, 2003). […] Teal-time RT-PCR was used to measure GLUT-5 mRNA expression following 2 mM, and 5.5 mM glucose-, and 5.5 mM fructose-treatment for 4 h, and 24 h respectively. GLUT-5 mRNA was expressed as the fold-change relative to GLUT-5 mRNA levels in 2 mM glucose-treated cells. As depicted in FIG. 22, at 4 h, GLUT-5 mRNA levels were low in both the 5.5 mM glucose-, and fructose-treated PANC-1 cells. […] This agrees with other studies which have reported fructose-induced GLUT-5 mRNA expression in colon cancer (Gouyon F, Onesto C, Dalet V, Pages G, Leturque A, and Brot-Laroche E. Fructose modulates GLUT5 mRNA stability in differentiated Caco-2 cells: Role of cAMP-signalling pathway and PABP (polyadenylated-binding protein)-interacting protein (Paip) 2. J Biochem 375:167-174, 2003).

[2] = system: MAPK pathway (pERK, pRSK, pMEK); assay: Western blot of MAPK pathway in PANC-1 cells; conditions: PANC-1, 5.5 mM sugar, 48 h
Experimental: FIG. 23 depicts Western blot analysis examining MAPK pathway expression in accordance with an embodiment of the present invention. PANC-1 pancreatic cancer cells were incubated in 2 mM glucose, 5.5 mM glucose or 5.5 mM fructose for 48 hours, after which Western blot analysis on total protein lysates was employed to examine phosphorylated MEK (pMEK), pRSK, and pCREB, and corresponding total MEK, RSK, and CREB levels.
Several signal transduction pathways may be involved in fructose-mediated pancreatic cancer growth but given the importance of the MAPK pathway in proliferation, the inventors believed that MAPK was involved. In the MAPK pathway, MEK mediated phosphorylation of the p44/42 MAP kinase (ERK) is the first step in this cascade, which results in phosphorylation of p90^Rsk, leading to transcriptional activation of CREB, and AP1, activating gene transcription and promoting cellular growth. The inventors employed Western blot analysis to examine MAPK pathway expression in pancreatic cancer cells incubated in 2 mM glucose, 5.5 mM glucose, and 5.5 mM fructose for 48 hours. Levels of the active phosphorylated proteins, pERK, pRSK, and pMEK were normalized to total ERK, RSK, and MEK levels respectively, and compared between the fructose-, and glucose-treated PANC-1 cells.

[3] = system: uric acid production in PANC-1 cells; assay: Uricase activity / uric acid production in PANC-1 conditioned medium; conditions: 5.5 mM fructose
Experimental: FIG. 32 depicts uric acid productionin PANC-1 cells in accordance with an embodiment of the present invention. Uric acid production in pancreatic cancer PANC-1 cells following incubation in 2 mM glucose, 5.5 mM glucose, and 5.5 mM fructose for 24 h, 48, 72, and 96 h respectively, p<0.01 5.5 mM fructose versus 5.5 mM glucose.
Based on the metabolomic studies which led the inventors to believe that fructose was metabolized in pancreatic cancer cells in large part to generate nucleic acids, the inventors devised a series of experiments to examine nucleic acid synthesis in the pancreatic cancer cells following either glucose or fructose-treatment. PANC-1 cells were incubated as before in 5.5 mM glucose or fructose for 24 h, following an ELISA-based fluorimetric assay (Amplex Red Uric acid uricase assay kit, Invitrogen) was employed to measure uricase activity in conditioned medium derived from the pancreatic cancer cells (Shi Y, Evans J E, Rock K L. Molecular identification of a danger signal that alerts the immune system to dying cells Nature 425, 516-21, 2003). Uricase activity correlates highly with uric acid production, a purine by-product of nucleic acid synthesis. […] Fluoresence was measured in a fluorescence microplate reader using excitation at 530 nm and detection at 590 nm, and the assay can detect levels as low as 100 nM uric acid.

[4] = system: AP-1 activation in a primary culture of a pancreatic tumor; assay: AP-1 probe binding assay, primary pancreatic tumor culture; conditions: 5.5 mM sugar
Experimental: FIG. 24 depicts luciferase activity of PANC-1 cells and primary culture of surgically resected pancreatic tumor cells in accordance with an embodiment of the present invention. PANC-1 pancreatic cancer cells and a primary culture of a surgically resected pancreatic tumor were incubated in 2 mM glucose, 5.5 mM glucose or 5.5 mM fructose for 48 h, after which nuclear extracts were incubated with a biotinylated AP-1 probe, and detected by an antibody-linked colorimetric method. *, p<0.01
In separate experiments PANC-1 cells, and primary cultures of surgically resected pancreatic tumors were incubated in 2 mM glucose, or 5.5 mM glucose or 5.5 mM fructose for 48 h, after which nuclear extracts were incubated with a biotinylated AP-1 probe in binding buffer. AP-1/AP1 probe complexes were next conjugated to a streptavidin-coated assay plate and detected using an AP-1 specific antibody, followed by binding of a horseradish-peroxidase conjugated secondary antibody, and detection by a colorimetric reagent.

[5] = system: MAPK pathway (pMEK, pRsk, pCREB) in MCF-7, and MDA-MB231 breast cancer cells; assay: Western blot of MAPK pathway in breast cancer cells
Experimental: FIG. 11 depicts increased breast cancer phosphorylated-MEK, phosphorylated Rsk, and phosphorylated CREB in accordance with an embodiment of the present invention. MCF-7 breast cancer cells were incubated in 2 mM glucose, 5 mM glucose or 5 mM fructose for 24 hours, after which Western blot analysis on total protein lysates was employed to examine components of the MAP kinase pathway. […] Total MEK, Rsk, and CREB levels, and β-actin served as loading controls.
Although several signal transduction pathways are likely involved in the fructose-mediated enhanced breast cancer growth and while not wishing to be bound by any particular theory, the inventors believe that the MAP-kinase pathway is involved. The inventors have used Western blot analysis to examine the MAPK pathway in breast cancer cells incubated in 2 mM glucose, 5.5 mM glucose, and 5.5 mM fructose for 48 hours. […] Activation of MEK, and subsequently ERK results in phosphorylation of p90^Rsk, which leads to transcriptional activation of CREB and AP1, which bind to cAMP or AP1 response elements respectively, activating gene transcription and promoting cellular growth.

O=C(CO)[C@@H](O)[C@H](O)[C@H](O)CO [fructose] was tested, and the “GLUT-5 mRNA levels higher than in 2 mM glucose-treated cells” value ([1]; PANC-1, 5.5 mM fructose, 24 h) was 1.5 fold, the “GLUT-5 mRNA levels higher than in 5.5 mM glucose-treated cells” value ([1]; PANC-1, 5.5 mM fructose, 24 h) was 1.75 fold and the “GLUT-5 mRNA levels” value ([1]; PANC-1, 5.5 mM sugar, 4 h) was “low”. For the same compound, the “pERK, pRSK, and pMEK expression” value [2] was “highest pERK, pRSK, and pMEK expression”, the “uricase activity higher than glucose-treated cells” value ([3]; 96 h) was roughly 20% and the “uricase activity higher than glucose-treated cells” value ([3]; 120 h) was roughly 50%. The “increase in AP-1 activation compared to 2 mM glucose” value [4] was 2.1 fold, the phospho-MEK expression ([5]; 5.5 mM fructose vs 5.5 and 2 mM glucose, MCF-7 and MDA-MB231) was “increased expression of phospho-MEK (pMEK)” and the “phospho-Rsk and phospho-CREB” value ([5]; 5.5 mM fructose, 24 h, vs 5.5 and 2 mM glucose) was “increased phospho-Rsk (pRsk), and phospho-CREB (pCREB)”.
